According to patent US20190264146A1, “An Antimicrobial Composition” (priority 2015, published 2019):

Legend:
Assay in all cases: Microdilution test (MIC/MBC)
Type in all cases: cell-based
Details in all cases: lower line of pair, sub-cultivation 72 h
S. enteritidis = test system: S. enteritidis
Protocol: (§1) Minimum inhibitory concentration (MIC) is the lowest concentration of an antimicrobial that will inhibit the visible growth of a microorganism after overnight incubation. Minimum inhibitory concentrations are important in diagnostic laboratories to confirm resistance of microorganisms to an antimicrobial agent and to monitor the activity of new antimicrobial agents. A MIC is the most basic laboratory measurement of the activity of an antimicrobial agent against an organism.
(§2) The minimum inhibitory and bactericidal concentrations (MICs and MBCs) can be determined using 96-well microtitre plates. The bacterial suspension is adjusted with sterile saline to a concentration of 1.0×10^5 cfu/m L. Compounds to be investigated are dissolved in broth LB medium (100 μL) with bacterial inoculum (1.0×10^4 cfu per well) to achieve the wanted concentrations (0.02-15.0 μL g/mL). The microplates are incubated for 24 h at 28° C. […] The MBCs are determined by serial sub-cultivation of 2 μL into microtitre plates containing 100 μL of broth per well and further incubation for 72 h. The lowest concentration with no visible growth is defined as the MBC, indicating 99.5% killing of the original inoculum. The optical density of each well is measured at a wavelength of 655 nm by Microplate manager 4.0 (Bio-Rad Laboratories) and compared with a blank and the positive control. Streptomycin is used as a positive control using the same concentrations as in the disc diffusion test. Two replicates were done for each oil and each component.

E. coli = test system: E. coli
Protocol: as §1, §2

L. monocytogenes = test system: L. monocytogenes
Protocol: as §1, §2

P. mirabilis = test system: P. mirabilis
Protocol: as §1, §2

P. aeruginosa = test system: P. aeruginosa
Protocol: as §1, §2

S. epidermidis = test system: S. epidermidis
Protocol: as §1, §2

M. flavus = test system: M. flavus
Protocol: as §1, §2

E. cloacae = test system: E. cloacae
Protocol: as §1, §2

S. typhimurium = test system: S. typhimurium
Protocol: as §1, §2

S. aureus = test system: S. aureus
Protocol: as §1, §2

B. subtilis = test system: B. subtilis
Protocol: as §1, §2

Row | Structure (SMILES) | MBC (S. enteritidis) [μL g/mL] | MBC (E. coli) [μL g/mL] | MBC (L. monocytogenes) [μL g/mL] | MBC (P. mirabilis) [μL g/mL] | MBC (P. aeruginosa) [μL g/mL] | MBC (S. epidermidis) [μL g/mL] | MBC (M. flavus) [μL g/mL] | MBC (E. cloacae) [μL g/mL] | MBC (S. typhimurium) [μL g/mL] | MBC (S. aureus) [μL g/mL] | MBC (B. subtilis) [μL g/mL]
1 | CC12CCC(CC1)C(C)(C)O2 [1,8 cineole (eucalyptol)] | 6.0 | 8.0 | 6.0 | 8.0 | 9.0 | 5.0 | 5.0 | 8.0 | 6.0 | 6.0 | 5.0
2 | C=C1CCC2CC1C2(C)C (stereo not drawn) [beta pinene] | 9.0 | 10.0 | 10.0 | 10.0 | 13.0 | 6.5 | 5.5 | 10.0 | 9.0 | 7.5 | 6.0
3 | C=C(C)[C@H]1CC=C(C)CC1 [Limonene] | 10.0 | 12.0 | 10.0 | 15.0 | 15.0 | 8.0 | 7.0 | 10.0 | 10.0 | 8.0 | 7.0
